Data reported in US20250161287A1, “METHODS, COMPOSITIONS, AND COMBINATIONS FOR PREVENTING OR TREATING CANCER RECURRENCE” (VUJA DE SCIENCES, INC., priority 2022, published 2025).
Values joined by “and” are separate entries in the source; they are usually repeats but may differ in a detail not shown here. Equal values may be shown once. “Also recorded” adds a separate entry of the source. Read-outs that look alike come from different tables or passages of the source.

How the values were obtained:
MG63.3 OS cell line [1] = experiment: in vitro 3D BME assay with MG63.3 OS cell line; type: cell-based, human; conditions: for activity on 3D BME compared with 2D: MG63.3, 3D BME vs 2D MTT 72 h; for 3D activity and selectivity for ME in a screen of 10 HDAC inhibitors: selectivity = ratio of 3D to 2D % inhibition at the same dose, Class I, Class II, pan-HDAC
From the text: 3D basement membrane extract (BME) assay was developed at the NCI Barkan (D. Barkan et al. 2008; Dalit Barkan and Green 2011; Hen and Barkan 2020). BME is purified from Engelbreth-Holm-Swarm (EHS) tumor, primarily made up of laminin, collagen IV, entactin, and heparin sulfate proteoglycans (Cultrex Reduced Growth Factor Basement Membrane Extract, PathClear n.d.), which allows it to more accurately reflect the 3D extracellular environment in the body.
Initially >150 selected therapeutic agents were tested on BME based on the likelihood for either a positive effect or a […] negative effect (as negative controls). […] These therapeutic agents were also tested in dose response (as broad as 1 pM-100 μM) for 2D cytotoxicity (MTT) and the IC50 was calculated. Where required, the hits from the initial screen were also further characterized at additional doses <100 nM in order to further determine the relative selectivity compared to the 2D IC50.
The influence of drug exposure on the metastatic phenotype was assessed in an in vitro assay of ME and escape from dormancy using a 3D BME assay as previously reported, which was adapted for use with OS cells.
Cultrex® PathClear, Reduced Growth Factor Basement Membrane Extract (BME—Bio-Techne, Minneapolis, MN) was added ([…]) to a 96-well plate and allowed to gel by incubating at 37° C. for ≥30 min. Cells were harvested, washed with DMEM (no glucose, no FBS, Gibco, Grand Island, NY) and centrifuged at 1500 g×5 mins. The media was aspirated and the remaining cell pellet flicked for about 10 s to ensure disaggregation.
Cells were diluted in assay media containing 2% BME, resuspended vigorously and 150 μL of the cell suspension was added on top of the gelled 3D BME layer. […] Cell numbers were determined in control vehicle (cells in media+0.1% DMSO), or treated wells and were measured on the indicated days by addition of 20 μL/well of MTS reagent (Cell Titer 96 Aqueous One, Promega, Madison, WI), followed by incubation at 37° C. for 2 h and absorbance measurements at 490 nm via plate reader (Molecular Devices, San Jose CA).
All conditions were conducted in quadruplicate and each experiment was carried out at least 3 separate times. All comparisons were made between treatment and vehicle control at concordant time points. Statistical analyses and non-linear regressions were derived using GraphPad Prism statistical software.

MG63.3 OS cell line [2] = experiment: 2D growth / cytotoxicity by MTT, MG63.3; conditions: for doses exhibiting cytotoxicity on 2D growth: 72 h
Method: The number of viable cells present in 2D culture was determined by MTT as previously reported. Briefly, cells were plated in 96-well plates at 2,000 cells/well and incubated at 37° C. for 24 h. After 24 h, the media was replaced with fresh media containing drugs at the desired concentrations (10 pM-10 μM) and incubated at 37° C. for 72 h. After 72 h, MTT reagent (20 L/well of a 5 mg/mL stock solution in sterile water; Sigma, St. Louis, MO) was added to each well and the plate was incubated at 37° C. for 2 h. DMSO ([…]) was then added to each well to solubilize the formazan crystals.
The resulting absorbance was measured at 490 nm via plate reader (Molecular Devices, San Jose, CA). DMSO (0.1%) was used as vehicle control, while 20 μM rapamycin was used as a positive cell-kill control. The experimental conditions were conducted in triplicate and each experiment was repeated three times. Regression lines and IC50's were calculated using a four-parameter variable slope nonlinear fit in GraphPad Prism.

[3] = MG63.3 on 3D BME, vs vehicle control, replicates=4, read-out: lowest dose leading to appreciable inhibition of 3D growth
[4] = Homo sapiens, MG-63.3, MG63.3 on 3D BME, vs vehicle control, replicates=4, read-out: lowest dose leading to appreciable inhibition of 3D growth
[5] = domatinostat 100-200 nM, MG63.3
[6] = MG63.3 on 3D BME, vs vehicle control, replicates=4

| SMILES | activity on 3D BME compared with 2D (MG63.3 OS cell line [1]) | doses exhibiting cytotoxicity on 2D growth (MG63.3 OS cell line [2]; human) [nM] | minimal effective concentration (MG63.3 OS cell line [1]; [4]) [µM] | also measured |
| --- | --- | --- | --- | --- |
| O=C(/C=C/c1cccnc1)NCCCCC1CCN(C(=O)c2ccccc2)CC1 [(E)-daporinad] | much stronger activity on 3D BME at significantly lower doses | > 0.1 |  | minimal effective concentration (MG63.3 OS cell line [1]; [3]): 0.0001 µM |
| COc1c(C)cnc(Cn2cnc3c(Cl)nc(N)nc32)c1C [BIIB021] | much stronger activity on 3D BME at significantly lower doses | > 10 | 0.008 |  |
| O=C(NOC[C@H](O)CO)c1ccc(F)c(F)c1Nc1ccc(I)cc1F [PD0325901] | much stronger activity on 3D BME at similar doses; also recorded: more active in 3D than in 2D | ≥ 100 |  | minimal effective concentration (MG63.3 OS cell line [1]; Homo sapiens, MG-63.3, read-out: lowest dose leading to appreciable inhibition of 3D growth): 0.001 µM; growth inhibition in the 3D BME assay (MG63.3 OS cell line [1]; PD0325901 1-128 nM, MG63.3): 50-75%; inhibition in 2D at this dose (MG63.3 OS cell line [2]; PD0325901 1-128 nM, MG63.3): no statistically significant inhibition |
| COc1cc(Nc2ncc3c(n2)-c2ccc(Cl)cc2C(c2c(F)cccc2OC)=NC3)ccc1C(=O)O [alisertib] | much stronger activity on 3D BME at significantly lower doses | > 25 | 0.0125 |  |
| CO[C@H]1/C=C\C=C(/C)C(=O)NC2=CC(=O)C(NCCN(C)C)=C(C[C@@H](C)C[C@H](OC)[C@H](O)[C@@H](C)/C=C(\C)[C@@H]1OC(N)=O)C2=O [alvespimycin] | much stronger activity on 3D BME at significantly lower doses |  | 0.0125 | doses exhibiting cytotoxicity on 2D growth (MG63.3 OS cell line [2]; MG63.3, MTT, replicates=3): > 25 nM |
| O=C(/C=C/c1cccc(S(=O)(=O)Nc2ccccc2)c1)NO [belinostat] |  | ≥ 80 | 0.2 | 3D activity and selectivity for ME in a screen of 10 HDAC inhibitors (MG63.3 OS cell line [1]; MG63.3): 3D activity and selectivity for ME |
| CO[C@@H](C(=O)N1Cc2n[nH]c(NC(=O)c3ccc(N4CCN(C)CC4)cc3)c2C1)c1ccccc1 [danusertib] | much stronger activity on 3D BME at significantly lower doses | > 100 | 0.1 |  |
| Cn1cc(-c2ccc(S(=O)(=O)n3ccc(/C=C/C(=O)Nc4ccccc4N)c3)cc2)cn1 [domatinostat] | much stronger activity on 3D BME at similar doses; also recorded: more active in 3D than in 2D | ≥ 200 | 0.1 | earlier (2 days on, 4 days off) vs later (2 days off, 4 days on) treatment (MG63.3 OS cell line [1]; FIG. 68, rapamycin 2-16 nM experiment, MG63.3 3D BME): slightly more inhibition than later treatment; 3D activity and selectivity for ME in a screen of 10 HDAC inhibitors (MG63.3 OS cell line [1]; MG63.3): highest 3D activity and selectivity for ME; efficacy of domatinostat alone treated for 1 day (MG63.3 OS cell line [1]; domatinostat 100-200 nM, 1 day on, 5 days off): little to no efficacy; growth inhibition in the 3D BME assay (MG63.3 OS cell line [1]; [5]): 20-50%; inhibition of 3D growth relative to vehicle, two schedules (MG63.3 OS cell line [1]; domatinostat 200-800 nM, Days 3-6 (2 days off, 4 days on) or Days 1-2 (2 days on, 4 days off), P<0.005): significantly inhibition relative to vehicle for both treatment schedules; earlier (2 days on, 4 days off) vs later (2 days off, 4 days on) treatment (MG63.3 OS cell line [1]; domatinostat 200-800 nM, MG63.3 3D BME): slightly more inhibition than later treatment; re-treatment on Day 3 vs treated once, inhibition of 3D growth (MG63.3 OS cell line [1]; rapamycin 1 nM, domatinostat 100 & 150 nM, combination, P<0.01 for all except 100 nM domatinostat alone): significantly increased inhibition relative to the conditions only treated with drug once; inhibition in 2D at these doses (MG63.3 OS cell line [2]; [5]): no statistically significant inhibition |
| CO[C@H]1C[C@@H]2CC[C@@H](C)[C@@](O)(O2)C(=O)C(=O)N2CCCC[C@H]2C(=O)O[C@H]([C@H](C)C[C@@H]2CC[C@@H](OCCO)[C@H](OC)C2)CC(=O)[C@H](C)/C=C(\C)[C@@H](O)[C@@H](OC)C(=O)[C@H](C)C[C@H](C)/C=C/C=C/C=C/1C [everolimus] | much stronger activity on 3D BME at similar doses |  | 0.01 | cytotoxicity on 2D growth (MG63.3 OS cell line [2]): cytotoxicity across all doses tested |
| COc1ccc(-c2nc(N3CCOCC3)c3sc(CN(C)c4ncc(C(=O)NO)cn4)cc3n2)cn1 [fimepinostat] |  | ≥ 1 |  | 3D activity and selectivity for ME in a screen of 10 HDAC inhibitors (MG63.3 OS cell line [1]; MG63.3): 3D activity and selectivity for ME; lowest dose leading to complete inhibition of 3D growth (MG63.3 OS cell line [1]; [6]): 5 nM |
| CCN(CC)Cc1ccc2cc(COC(=O)Nc3ccc(C(=O)NO)cc3)ccc2c1 [givinostat] | more active in 3D than in 2D | ≥ 600 | 0.3 | 3D activity and selectivity for ME in a screen of 10 HDAC inhibitors (MG63.3 OS cell line [1]; MG63.3): highest 3D activity and selectivity for ME; 3D growth inhibition and selectivity for ME at selected dose (MG63.3 OS cell line [1]; givinostat 400 nM, quisinostat 10 nM, MG63.3 3D BME): significant 3D growth inhibition and selectivity for ME |
| O=C(CC1NCCCC1O)Cn1cnc2cc(Br)c(Cl)cc2c1=O (stereo not shown) [halofuginone] |  | ≥ 12.5 |  | lowest dose leading to >25% inhibition of 3D growth (MG63.3 OS cell line [1]; [6]): 3 nM |
| CC(C)[C@]12O[C@H]1[C@@H]1O[C@]13[C@]1(O[C@H]1C[C@H]1C4=C(CC[C@@]13C)C(=O)OC4)[C@@H]2OCOP(=O)(O)O [minnelide] |  |  |  | lowest dose leading to complete inhibition of 3D growth (MG63.3 OS cell line [1]; [6]): 4 nM; doses exhibiting cytotoxicity on 2D growth (MG63.3 OS cell line [2]; MG63.3, MTT, replicates=3): ≥ 0.781 nM |
| CO[C@@]12[C@H](COC(N)=O)C3=C(C(=O)C(C)=C(N)C3=O)N1C[C@@H]1N[C@@H]12 [mitomycin C] | much stronger activity on 3D BME at significantly lower doses; also recorded: more active in 3D than in 2D |  |  | IC50 (MG63.3 OS cell line [1]; MG63.3): 50 nM; minimal effective concentration (MG63.3 OS cell line [1]; [3]): 0.0125 µM; IC50 (MG63.3 OS cell line [2]; read-out: 2D IC50, MG63.3, MTT 72 h): 1000 nM and ~1000 nM |
| CC1(C)CCC(c2ccc(Cl)cc2)=C(CN2CCN(c3ccc(C(=O)NS(=O)(=O)c4ccc(N[C@H](CCN5CCOCC5)CSc5ccccc5)c(S(=O)(=O)C(F)(F)F)c4)cc3)CC2)C1 [navitoclax] | much stronger activity on 3D BME at similar doses; also recorded: more active in 3D than in 2D | ≥ 1000 | 0.5 | growth inhibition in the 3D BME assay (MG63.3 OS cell line [1]; navitoclax 500-2000 nM, MG63.3): 50-60%; inhibition in 2D (MG63.3 OS cell line [2]; navitoclax 500-2000 nM, MG63.3): 0-25% |
| Cc1[nH]c2ccccc2c1CCNCc1ccc(/C=C/C(=O)NO)cc1 [panobinostat] |  | ≥ 80 | 0.04 |  |
| NS(=O)(=O)OC[C@@H]1C[C@@H](n2ccc3c(N[C@H]4CCc5ccccc54)ncnc32)C[C@@H]1O [pevonedistat] | much stronger activity on 3D BME at significantly lower doses; also recorded: more active in 3D than in 2D | > 10 |  | inhibition at 0.025 µM (MG63.3 OS cell line [1]; Homo sapiens, MG-63.3, pevonedistat 25 nM, MG63.3): 47%; inhibition at 0.025 µM (MG63.3 OS cell line [2]; Homo sapiens, MG-63.3, read-out: inhibition in 2D): 20% |
